Test results published in patent US20120116095A1, “GLYCINE TRANSPORTER INHIBITORS” (TAISHO PHARMACEUTICAL C0., LTD., priority 2009, published 2012).

Legend:
male Sprague-Dawley rats = assay: Social recognition test (MK-801-treated rats); format: in vivo; details: rat; for Ratio (second exploration time/first exploration time): MK-801 0.1 mg/kg i.p.
Method: This experiment was performed using male Sprague-Dawley rats according to the reported method (Shimazaki et al., Psychopharmacology, 209, 263-270, 2010). Adult rats (9 weeks old) received intraperitoneal administration of MK-801 (0.1 mg/kg), and were immediately placed in test cages and acclimated for 30 minutes. Thereafter, juvenile rats (4 weeks old) were placed in the same test cages, where juvenile rats and adult rats were left for 5 minutes, during which the time it took for the adult rats to show social behavior (sniffing, grooming, following) to the juvenile rats was measured (first exploration time). Then, the juvenile rats were removed from the test cages and returned to their home cages. After 30 minutes, the same juvenile rats that were used in the first exploration were placed in the test cages, and the time it took for the adult rats to show social behavior (sniffing, grooming, following) to the juvenile rats during a 5-minute period was measured (second exploration time). The social recognition was expressed as the ratio of second exploration time to first exploration time. The test substance (Compound 10) was orally administered one hour before the start of first exploration. The vehicle group was administered a 0.5% methyl cellulose solution.

[1] = biological target: T1, human type 1 glycine transporter (GlyT1) (Homo sapiens, UniProt P48067); assay: Glycine uptake inhibition experiment ([3H]glycine uptake in T98G cells); format: cell-based; details: [3H]glycine 250 nM, 15 min, room temperature, read-out: glycine uptake inhibitory activity (IC50 value)
T1 construct: Glioma T98G cells endogenously expressing human type 1 glycine transporter (GlyT1) were used; endogenous in cells; host or cells: T98G human glioma cells
T1 sequence (P48067 1-706): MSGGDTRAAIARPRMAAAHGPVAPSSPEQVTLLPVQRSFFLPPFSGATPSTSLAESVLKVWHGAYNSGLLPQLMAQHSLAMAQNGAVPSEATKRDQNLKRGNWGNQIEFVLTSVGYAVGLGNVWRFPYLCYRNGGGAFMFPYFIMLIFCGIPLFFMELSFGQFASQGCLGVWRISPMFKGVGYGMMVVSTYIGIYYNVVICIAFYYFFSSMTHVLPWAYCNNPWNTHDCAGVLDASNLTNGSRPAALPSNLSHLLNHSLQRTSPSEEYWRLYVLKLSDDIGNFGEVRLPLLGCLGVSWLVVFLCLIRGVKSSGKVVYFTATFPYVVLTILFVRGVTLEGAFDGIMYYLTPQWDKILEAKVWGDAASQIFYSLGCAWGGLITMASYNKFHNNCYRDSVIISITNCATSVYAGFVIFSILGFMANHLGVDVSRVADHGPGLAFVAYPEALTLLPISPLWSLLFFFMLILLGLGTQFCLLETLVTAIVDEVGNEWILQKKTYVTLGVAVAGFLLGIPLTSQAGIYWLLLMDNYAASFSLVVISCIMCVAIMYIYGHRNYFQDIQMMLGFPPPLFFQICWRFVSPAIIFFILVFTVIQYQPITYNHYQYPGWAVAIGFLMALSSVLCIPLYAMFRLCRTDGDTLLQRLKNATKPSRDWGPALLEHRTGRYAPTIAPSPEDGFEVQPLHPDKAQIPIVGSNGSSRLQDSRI
Method: A glycine uptake experiment was conducted as described in Neuron, 8, 927-935, 1992. Glioma T98G cells endogenously expressing human type 1 glycine transporter (GlyT1) were used. T98G cells were seeded in a 96-well plate at 2.0×10^4 cells/well and cultured overnight in a CO2 incubator. A test compound was dissolved in a 100% DMSO solution and then dissolved in 10 mM HEPES buffer (pH 7.4) containing 150 mM sodium chloride, 1 mM calcium chloride, 5 mM potassium chloride, 1 mM magnesium chloride, 10 mM glucose and 0.2% bovine serum albumin. After removing the cell culture medium, the cells were pre-treated with the test compound for 10 minutes. Subsequently, the test compound and [^3H]glycine (final concentration: 250 nM) were added to the cells and incubated at room temperature for 15 minutes. After the incubation, the extracellular solution was aspirated with a manifold to remove the excess labeled glycine existing outside the cells, and the cells were then lysed with 0.5 M aqueous sodium hydroxide. The amount of glycine uptake was determined by measuring radioactivity in the cell lysate using a liquid scintillation counter. Glycine uptake in the presence of 10 μM ALX5407 was defined as non-specific uptake, and the value calculated by subtracting this non-specific uptake from the total uptake in the absence of 10 μM ALX5407 was defined as specific uptake. Moreover, an inhibition curve was obtained for each test compound at concentrations of […] to calculate the glycine uptake inhibitory activity (IC50 value) of each test substance.
It should be noted that ALX5407 is a HCl salt of N-[(3R)-3-([1,1′-biphenyl]-4-yloxy)-3-(4-fluorophenyl)propyl]-N-methylglycine.

P-glycoprotein (P-gp) = biological target: T2, P-glycoprotein (P-gp) (Homo sapiens, UniProt P08183); assay: Test for substrate recognition by P-gp (LLC-GA5-COL300 cells); format: in vitro ADME; details: 10 μM, Human MDR1-expressing LLC-GA5-COL300 cells, Apical to Basolateral and Basolateral to Apical
T2 construct: expressed in transfected cells; host or cells: LLC-GA5-COL300 (pig kidney LLC-PK1 cells expressing human MDR1)
From the text: In the case of drugs that act on the central nervous system, it is generally important for such drugs to be transferred from blood into brain for development of their efficacy. In the blood-brain barrier, there is found P-glycoprotein (P-gp), which is a typical member of the efflux transporters that control drug penetration; and P-gp inhibits the penetration of its substrate drugs into the brain. Thus, in developing a drug, recognition performance as a P-gp substrate can be used as an indicator of brain penetration.
A test for substrate recognition by P-gp was conducted as described in J. Pharmacol. Exp. Ther. (1992) Vol. 263, No. 2, 840-845 and J. Biol. Chem. (1992) Vol. 267, No. 34, 24248-24252. Specifically, LLC-GA5-COL300 cells (i.e., a Human MDR1-expressing system originating from a pig kidney-derived cultured renal epithelial cell line, LLC-PK1) were used after being cultured for 4 days on trans wells, and the medium in each well was replaced by Hank's balanced salt solution (HBSS) immediately before use in the test. After a test compound solution (i.e., a DMSO solution of a test compound, which was further diluted with HBSS and adjusted to a final concentration of 10 μM) was added to the Donor side of the LLC-GA5-COL300 cells, aliquots of HBSS were sampled over time from the Acceptor side to determine the test compound concentration in each collected sample by LC-MS/MS.
The membrane permeability coefficient (×10^−6 cm/sec) was calculated by the accumulated amount of the compound into the Acceptor side for both directions, Apical to Basolateral and Basolateral to Apical. and the ratio of these coefficients (Efflux Ratio) was then used to evaluate substrate recognition by P-gp.

T2 sequence (P08183 whole entry): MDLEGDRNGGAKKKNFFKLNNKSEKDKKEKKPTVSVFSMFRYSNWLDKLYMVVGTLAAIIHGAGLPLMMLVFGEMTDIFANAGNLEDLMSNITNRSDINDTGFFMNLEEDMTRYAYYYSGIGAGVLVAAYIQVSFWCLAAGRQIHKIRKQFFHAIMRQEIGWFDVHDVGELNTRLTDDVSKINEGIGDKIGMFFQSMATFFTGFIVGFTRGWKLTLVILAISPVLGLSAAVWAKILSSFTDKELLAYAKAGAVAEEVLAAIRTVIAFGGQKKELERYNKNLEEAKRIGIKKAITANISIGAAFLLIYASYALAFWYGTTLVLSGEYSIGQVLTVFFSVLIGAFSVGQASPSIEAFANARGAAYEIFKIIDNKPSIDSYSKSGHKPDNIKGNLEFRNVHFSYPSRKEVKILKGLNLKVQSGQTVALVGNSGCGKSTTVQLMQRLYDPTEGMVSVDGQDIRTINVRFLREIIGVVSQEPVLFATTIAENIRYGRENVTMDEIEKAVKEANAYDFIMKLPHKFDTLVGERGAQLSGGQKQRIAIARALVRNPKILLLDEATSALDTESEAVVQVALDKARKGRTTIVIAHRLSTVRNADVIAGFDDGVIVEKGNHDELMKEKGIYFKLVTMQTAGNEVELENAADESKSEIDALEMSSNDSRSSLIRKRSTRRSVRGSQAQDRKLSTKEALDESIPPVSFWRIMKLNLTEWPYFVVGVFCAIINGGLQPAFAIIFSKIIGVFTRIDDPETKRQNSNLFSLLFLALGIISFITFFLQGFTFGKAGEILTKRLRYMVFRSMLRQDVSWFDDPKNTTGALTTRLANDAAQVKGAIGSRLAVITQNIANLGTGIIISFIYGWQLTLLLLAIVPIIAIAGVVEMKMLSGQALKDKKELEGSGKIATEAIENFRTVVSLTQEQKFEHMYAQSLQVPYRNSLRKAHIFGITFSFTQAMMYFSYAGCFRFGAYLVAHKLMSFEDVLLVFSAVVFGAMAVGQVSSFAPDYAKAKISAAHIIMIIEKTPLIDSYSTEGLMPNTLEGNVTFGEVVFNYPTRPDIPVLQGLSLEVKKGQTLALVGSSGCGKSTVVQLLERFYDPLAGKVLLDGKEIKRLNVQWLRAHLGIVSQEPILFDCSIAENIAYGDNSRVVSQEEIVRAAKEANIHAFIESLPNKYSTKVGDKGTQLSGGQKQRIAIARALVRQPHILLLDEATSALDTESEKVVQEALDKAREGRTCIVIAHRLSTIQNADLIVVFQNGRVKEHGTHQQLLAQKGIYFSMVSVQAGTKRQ

In the case of `CC(C)N(Cc1ccc(F)c(-c2ccc(OC(F)(F)F)cc2)c1)C(=O)c1cn(C)cn1` [Compound 10, N-{[6-Fluoro-4′-(trifluoromethoxy)biphenyl-3-yl]methyl}-1-methyl-N-(propan-2-yl)-1H-imidazole-4-carboxamide], the “Ratio (second exploration time/first exploration time)” value (male Sprague-Dawley rats; 0.1 mg/kg orally one hour before first exploration, p<0.05) is reported as 0.65 ± 0.05 ^p<0.05, the “Ratio (second exploration time/first exploration time)” value (male Sprague-Dawley rats; 0.3 mg/kg orally one hour before first exploration, p<0.01) is reported as 0.60 ± 0.06 ^p<0.01 and the “effect on cognitive functions (social recognition, in words)” value (male Sprague-Dawley rats; compared to the vehicle group, oral) is reported as “enhancing effect on cognitive functions”. The IC50 [1] was 14.8 nM and the “recognition as a P-gp substrate (Efflux Ratio criteria)” value (P-glycoprotein (P-gp)) was “not to be recognized as a P-gp substrate”.
